In PMC11502502 (Nature cancer, 2024):
Several values for one entry are separate records, joined by “and”; a condition that tells them apart may be missing. Equal values may be shown once. Read-outs that look alike come from different tables or passages of the source.

How the values were obtained:
SNU-16 = assay: CellTiter-Glo cell viability, SNU-16; format: cell-based; conditions: Homo sapiens, SNU-16, 72 h
MOLP-8 = assay: CellTiter-Glo cell viability, MOLP-8; format: cell-based; conditions: Homo sapiens, MOLP-8, 72 h
A-427 = assay: CellTiter-Glo cell viability, A-427; format: cell-based; conditions: Homo sapiens, A-427, 72 h
RPMI 8226 = assay: CellTiter-Glo cell viability, RPMI 8226; format: cell-based; conditions: Homo sapiens, RPMI-8226, 72 h
OPM-2 = assay: CellTiter-Glo cell viability, OPM-2; format: cell-based; conditions: Homo sapiens, OPM-2, 72 h
JJN-3 = assay: CellTiter-Glo cell viability, JJN-3; format: cell-based; conditions: Homo sapiens, JJN-3, 72 h
DMS114 = assay: CellTiter-Glo cell viability, DMS114; format: cell-based; conditions: Homo sapiens, DMS-114, 72 h
SNU398 = assay: CellTiter-Glo cell viability, SNU398; format: cell-based; conditions: Homo sapiens, SNU-398, 72 h
[1] = Protein-binding assay with equilibrium dialysis in cell culture medium; format: in vitro ADME; conditions: bovine, cell culture medium with 10% fetal calf serum
KMS-12-PE = assay: CellTiter-Glo cell viability, KMS-12-PE; format: cell-based; conditions: Homo sapiens, 72 h
HCC-1187 = assay: CellTiter-Glo cell viability, HCC-1187; format: cell-based; conditions: Homo sapiens, HCC1187, 72 h
SU-DHL-10 = assay: CellTiter-Glo cell viability, SU-DHL-10; format: cell-based; conditions: Homo sapiens, SU-DHL10, 72 h
HCC-2157 = assay: CellTiter-Glo cell viability, HCC-2157; format: cell-based; conditions: Homo sapiens, HCC2157, 72 h
HMC1–8 = assay: CellTiter-Glo cell viability, HMC1–8; format: cell-based; conditions: Homo sapiens, 72 h
KMS-12-BM = assay: CellTiter-Glo cell viability, KMS-12-BM; format: cell-based; conditions: Homo sapiens, 72 h
PA-1 = assay: CellTiter-Glo cell viability, PA-1; format: cell-based; conditions: Homo sapiens, PA-1, 72 h
A-431 = assay: CellTiter-Glo cell viability, A-431; format: cell-based; conditions: Homo sapiens, A-431, 72 h
NCI-H82 = assay: CellTiter-Glo cell viability, NCI-H82; format: cell-based; conditions: Homo sapiens, NCI-H82, 72 h
SU-DHL-5 = assay: CellTiter-Glo cell viability, SU-DHL-5; format: cell-based; conditions: Homo sapiens, SU-DHL-5, 72 h
AMO-1 = assay: CellTiter-Glo cell viability, AMO-1; format: cell-based; conditions: Homo sapiens, AMO1, 72 h
[2] = system: hiPS cell-derived cardiomyocytes; assay: hiPS cell-derived cardiomyocytes: cell viability (ATP levels, cell titer glow)
[3] = system: hiPS cell-derived cardiomyocytes; assay: hiPS cell-derived cardiomyocytes: DAPI-stained number of nuclei; format: cell-based, human
[4] = system: hiPS cell-derived cardiomyocytes; assay: hiPS cell-derived cardiomyocytes: extracellular LDH; format: cell-based, human; conditions: 1 μM, 72 h
[5] = system: hiPS cell-derived cardiomyocytes; assay: hiPS cell-derived cardiomyocytes: extracellular troponin I (AlphaLISA); format: cell-based, human
[6] = system: hiPS cell-derived cardiomyocytes; assay: hiPS cell-derived cardiomyocytes: activation of caspases 3 and 7; format: cell-based, human; conditions: 1 μM, 72 h
[7] = read-out: Anti-proliferative IC50
[8] = read-out: Antiproliferative IC50u

**Q.** Which IC50 (SNU-16; [7]) does the source give for `CO[C@H]1/C=C/C[C@H](C)[C@@H](C)S(=O)(=O)NC(=O)c2ccc3c(c2)N(C[C@@H]2CC[C@H]21)C[C@@]1(CCCc2cc(Cl)ccc21)CO3` [AMG176] here?
**A.** 583 nM

**Q.** What about the IC50 (SNU-16; [8]) of the same molecule?
**A.** 6 nM

**Q.** And the IC50 (MOLP-8; [7])?
**A.** 223 nM

**Q.** What about the IC50 (MOLP-8; [8]) of the same molecule?
**A.** 2.3 nM

**Q.** And the IC50 (A-427; [7])?
**A.** 563 nM

**Q.** And the IC50 (A-427; [8])?
**A.** 5.8 nM

**Q.** And the IC50 (RPMI 8226; [7])?
**A.** 291 nM

**Q.** What about the IC50 (RPMI 8226; [8]) of the same molecule?
**A.** 3 nM

**Q.** What about the IC50 (OPM-2; [7]) of the same molecule?
**A.** 117 nM

**Q.** What about the IC50 (OPM-2; [8]) of the same molecule?
**A.** 1.2 nM

**Q.** And the IC50 (JJN-3; [7])?
**A.** 553 nM

**Q.** What about the IC50 (JJN-3; [8]) of the same molecule?
**A.** 5.7 nM

**Q.** What about the IC50 (DMS114; [7]) of the same molecule?
**A.** 282 nM

**Q.** And the IC50 (DMS114; [8])?
**A.** 2.9 nM

**Q.** What about the IC50 (SNU398; [7]) of the same molecule?
**A.** 495 nM

**Q.** And the IC50 (SNU398; [8])?
**A.** 5.1 nM

**Q.** What about the fraction unbound [1] of the same molecule?
**A.** 0.01

**Q.** What about the IC50 (KMS-12-PE; [7]) of the same molecule?
**A.** 1160 nM

**Q.** And the IC50 (KMS-12-PE; [8])?
**A.** 12 nM

**Q.** What about the IC50 (HCC-1187; [7]) of the same molecule?
**A.** 330 nM

**Q.** And the IC50 (HCC-1187; [8])?
**A.** 3.4 nM

**Q.** And the IC50 (SU-DHL-10; [7])?
**A.** 87 nM

**Q.** And the IC50 (SU-DHL-10; [8])?
**A.** 0.9 nM

**Q.** What about the IC50 (HCC-2157; [7]) of the same molecule?
**A.** 262 nM

**Q.** And the IC50 (HCC-2157; [8])?
**A.** 2.7 nM

**Q.** And the IC50 (HMC1–8; [7])?
**A.** 583 nM

**Q.** And the IC50 (HMC1–8; [8])?
**A.** 6 nM

**Q.** And the IC50 (KMS-12-BM; [7])?
**A.** 184 nM

**Q.** And the IC50 (KMS-12-BM; [8])?
**A.** 1.9 nM

**Q.** What about the IC50 (PA-1; [7]) of the same molecule?
**A.** 631 nM

**Q.** And the IC50 (PA-1; [8])?
**A.** 6.5 nM

**Q.** What about the IC50 (A-431; [7]) of the same molecule?
**A.** 641 nM

**Q.** And the IC50 (A-431; [8])?
**A.** 6.6 nM

**Q.** What about the IC50 (NCI-H82; [7]) of the same molecule?
**A.** 476 nM

**Q.** What about the IC50 (NCI-H82; [8]) of the same molecule?
**A.** 4.9 nM

**Q.** And the IC50 (SU-DHL-5; [7])?
**A.** 117 nM

**Q.** And the IC50 (SU-DHL-5; [8])?
**A.** 1.2 nM

**Q.** And the IC50 (AMO-1; [7])?
**A.** 126 nM

**Q.** What about the IC50 (AMO-1; [8]) of the same molecule?
**A.** 1.3 nM

**Q.** With `COc1cccc2c1C(=O)c1c(O)c3c(c(O)c1C2=O)C[C@@](O)(C(=O)CO)C[C@@H]3O[C@H]1C[C@H](N)[C@H](O)[C@H](C)O1` [doxorubicin] as the molecule, how does the ATP levels ([2]; 1 μM, 72 h) read?
**A.** reduced ATP levels

**Q.** What about the “Cell viability via cell titer glow” value ([2]; Doxorubicin - wash, 3h) of the same molecule?
**A.** 0.9604 and 0.941 and 0.9405

**Q.** And the “Cell viability via cell titer glow” value ([2]; Doxorubicin - wash, 6h)?
**A.** 0.9905 and 0.9749 and 0.9586

**Q.** What about the “Cell viability via cell titer glow” value ([2]; Doxorubicin - wash, 24h) of the same molecule?
**A.** 0.9393 and 0.938 and 0.976

**Q.** And the “Cell viability via cell titer glow” value ([2]; Doxorubicin - wash, 48h)?
**A.** 0.6883 and 0.7253 and 0.7219

**Q.** What about the “Cell viability via cell titer glow” value ([2]; Doxorubicin - wash, 72h) of the same molecule?
**A.** 0.5187 and 0.5467 and 0.5116

**Q.** What about the “Cell viability via cell titer glow” value ([2]; Doxorubicin, 3h) of the same molecule?
**A.** 0.9456 and 0.9453 and 0.963

**Q.** What about the “Cell viability via cell titer glow” value ([2]; Doxorubicin, 6h) of the same molecule?
**A.** 0.9853 and 1.049 and 1.001

**Q.** What about the “Cell viability via cell titer glow” value ([2]; Doxorubicin, 24h) of the same molecule?
**A.** 0.9003 and 0.8578 and 0.8897

**Q.** What about the “Cell viability via cell titer glow” value ([2]; Doxorubicin, 48h) of the same molecule?
**A.** 0.5823 and 0.6777 and 0.6323

**Q.** And the “Cell viability via cell titer glow” value ([2]; Doxorubicin, 72h)?
**A.** 0.4355 and 0.3955 and 0.4606

**Q.** And the Nuclear counts ([3]; 1 μM, 72 h)?
**A.** decreased nuclear counts

**Q.** What about the “DAPI stained number of nuclei” value ([3]; Doxorubicin - wash, 3h) of the same molecule?
**A.** 0.4105 and 0.3857 and 0.4592

**Q.** What about the “DAPI stained number of nuclei” value ([3]; Doxorubicin - wash, 6h) of the same molecule?
**A.** 0.9721 and 0.9984 and 0.8453

**Q.** What about the “DAPI stained number of nuclei” value ([3]; Doxorubicin - wash, 24h) of the same molecule?
**A.** 0.5586 and 0.4572 and 0.5102

**Q.** And the “DAPI stained number of nuclei” value ([3]; Doxorubicin - wash, 48h)?
**A.** 0.8181 and 0.8435 and 0.8812

**Q.** And the “DAPI stained number of nuclei” value ([3]; Doxorubicin - wash, 72h)?
**A.** 0.2447 and 0.2247 and 0.2518

**Q.** What about the “DAPI stained number of nuclei” value ([3]; Doxorubicin, 3h) of the same molecule?
**A.** 0.3508 and 0.3671 and 0.4582

**Q.** And the “DAPI stained number of nuclei” value ([3]; Doxorubicin, 6h)?
**A.** 0.9886 and 0.9511 and 0.985

**Q.** And the “DAPI stained number of nuclei” value ([3]; Doxorubicin, 24h)?
**A.** 0.3141 and 0.2601 and 0.2627

**Q.** And the “DAPI stained number of nuclei” value ([3]; Doxorubicin, 48h)?
**A.** 0.2344 and 0.4107 and 0.4046

**Q.** What about the LDH release [4] of the same molecule?
**A.** increased LDH release

**Q.** And the “Extracellular troponin I” value ([5]; Doxorubicin - wash, 48h)?
**A.** 5.76 and 7.195 and 6.893

**Q.** What about the “Extracellular troponin I” value ([5]; Doxorubicin - wash, 72h) of the same molecule?
**A.** 12.7295 and 11.4567 and 13.7321

**Q.** And the “Extracellular troponin I” value ([5]; Doxorubicin, 3h)?
**A.** 0.7061 and 0.6741 and 0.6927

**Q.** What about the “Extracellular troponin I” value ([5]; Doxorubicin, 6h) of the same molecule?
**A.** 2.491 and 1.893 and 3.419

**Q.** And the “Extracellular troponin I” value ([5]; Doxorubicin, 48h)?
**A.** 9.842 and 16.5962 and 13.2372

**Q.** What about the “Extracellular troponin I” value ([5]; Doxorubicin, 72h) of the same molecule?
**A.** 30.5761 and 27.6931 and 29.1909

**Q.** And the “Caspase 3 activation” value [6]?
**A.** time-dependent activation of caspase 3

**Q.** What does the source list for `Cc1c2c(nn1C)CSCc1cc(n(C)n1)CSc1cc(c3ccccc3c1)OCCCc1c(C(=O)O)n(C)c3c-2c(Cl)ccc13` [AZD5991]?
**A.** IC50 (SNU-16; [7]): 267 nM; IC50 (SNU-16; [8]): 5.6 nM; IC50 (MOLP-8; [7]): 38 nM; IC50 (MOLP-8; [8]): 0.8 nM; IC50 (A-427; [7]): 52 nM; IC50 (A-427; [8]): 1.1 nM; IC50 (RPMI 8226; [7]): 62 nM; IC50 (RPMI 8226; [8]): 1.3 nM; IC50 (OPM-2; [7]): 33 nM; IC50 (OPM-2; [8]): 0.7 nM; IC50 (JJN-3; [7]): 71 nM; IC50 (JJN-3; [8]): 1.5 nM; IC50 (DMS114; [7]): 71 nM; IC50 (DMS114; [8]): 1.5 nM; IC50 (SNU398; [7]): 52 nM; IC50 (SNU398; [8]): 1.1 nM; fraction unbound [1]: 0.021; IC50 (KMS-12-PE; [7]): 210 nM; IC50 (KMS-12-PE; [8]): 4.4 nM; IC50 (HCC-1187; [7]): 52 nM; IC50 (HCC-1187; [8]): 1.1 nM; IC50 (HCC-2157; [7]): 95 nM; IC50 (HCC-2157; [8]): 2 nM; IC50 (HMC1–8; [7]): 329 nM; IC50 (HMC1–8; [8]): 6.9 nM; IC50 (KMS-12-BM; [7]): 33 nM; IC50 (KMS-12-BM; [8]): 0.7 nM; IC50 (PA-1; [7]): 105 nM; IC50 (PA-1; [8]): 2.2 nM; IC50 (A-431; [7]): 219 nM; IC50 (A-431; [8]): 4.6 nM; IC50 (NCI-H82; [7]): 162 nM; IC50 (NCI-H82; [8]): 3.4 nM; IC50 (SU-DHL-5; [7]): 14 nM; IC50 (SU-DHL-5; [8]): 0.3 nM; IC50 (AMO-1; [7]): 57 nM; IC50 (AMO-1; [8]): 1.2 nM
